The values that follow come from PubChem BioAssay AID1224915.

This test concerns MDA-MB-231 antiproliferation. Kind of test: PubChem AID 1224915.

By EC50 is commonly meant the midpoint of the concentration-response curve.

Consider `COc1cc(-c2nn(CCN3CCC(N(C)C)CC3)c3ncnc(N)c23)ccc1NC(=O)OC(C)(C)C`, for which the EC50 is 9 nM.
